2 molecules from US20100210559A1, “TRAP-14 AS A THERAPEUTIC AGENT” (priority 2007, published 2010) can be followed below.

Broadly, the viability is a read-out of living cells in per cent, often relative to untreated cells. A higher viability goes with less harm to the cells. The % inhibition is the percentage by which the read-out fell short of the control. A lower % inhibition goes with little suppression.

No end group written: not given here.

For one series, the system named is HIV-1IIIB. Put plainly: HIV-1 antiviral assay (CPE reduction, MTS). The format is cell-based. The following applies: peptide 10 micrograms per ml, 6 days post-infection.
A short description of another series: in vitro. Conditions: human, HepG2-2.2.15 cells.
Series [1] is described as follows: Cytotoxicity in CEM-SS cells (MTS cell viability). The following applies: human.
Another series has as its system MRSA. The following applies: 5 micrograms per ml.
The next series relates to Streptococcus pneumoniae. Type of series: cell-based. The following applies: 5 micrograms per ml.
Series [2] in a line: Cytotoxicity in MRC-5 cells (CellTiter 96). Conditions: human.
Another series deals with Pseudomonas aeruginosa. The format is cell-based. The following applies: 5 micrograms per ml.

Procedure for in vitro: HepG2-2.2.15 cells were plated in 96-well microtiter plates. After 16-24 hours the confluent monolayer of HepG2-2.2.15 cells was washed and the medium was replaced with complete medium containing test peptide—10 micrograms per ml—in duplicate. […] Three days later the culture medium was replaced with fresh medium containing the peptide. […] A novel dye uptake assay was then employed to measure cell viability, which is used to calculate toxicity (% cell control).

Regarding `Cc1cn([C@H]2C[C@H](N=[N+]=[N-])[C@@H](CO)O2)c(=O)[nH]c1=O` [AZT], the “% CPE reduction in HIV-1 infected CEM-SS cells” value with HIV-1IIIB was found to be 99%.

Turning to SFLLRNPNDKYEPF-OH [TRAP-14], the viability at 144 h, 10 micrograms per ml in the series “in vitro” was 84.5%. The molecule further had a viability at 10 micrograms per ml in series [1] of 100%. In addition, the “% inhibition” value in the series with MRSA, with Streptococcus pneumoniae and in the series with Pseudomonas aeruginosa was 0.0% in each case. The same molecule yielded a viability at 144 h in series [2] of 100%.
